Measured values: PMC12677653, “Inhibition of Tumor Lipogenesis and Growth by Peptide‐Based Targeting of SREBP Activation” (Advanced Science, 2025)

Key:
[1] = test system: SREBP1/SREBP2 target genes; assay: Quantitative PCR of SREBP target genes in Huh7 cells; type: cell-based, human; conditions: peptide 15 μM, IGF1 100 ng/mL 10 h, qPCR, n = 3
Method: Figure 1 The Insig1/2 loop 1 peptide binds to S90‐phosphorylated PCK1 and blocks PCK1‐mediated SREBP activation and tumor cell proliferation. Immunoblotting analyses were performed using the indicated antibodies; representative results from three independent experiments are shown (IP, immunoprecipitation; WB, western blot). a) Huh7 cells expressing various Insig1 (top) or Insig2 (bottom) truncation mutants were treated with or without IGF1 (100 ng mL^−1) for 1 h. b,c) Biolayer interferometry assays (Sartorius Octet) were employed to measure the binding affinity of Insig1/2 loop 1 peptide to GST‐PCK1 or GST‐PCK1 pS90 proteins. Data represent three independent experiments. d) Flag‐PCK1‐expressing Huh7 cells were pretreated with Insig1/2 loop 1 peptide (15 µM) for 1 h before IGF1 (100 ng mL^−1) stimulation. e) Huh7 cells were pretreated with low (7.5 µM) or high (15 µM) concentrations of Insig1/2 loop 1 peptide for 1 h before IGF1 (100 ng mL^−1) stimulation. f) Huh7 cells transiently transfected with β‐galactosidase and SRE‐driven luciferase reporter vectors were pretreated with Insig1/2 loop 1 peptide (15 µM) for 1 h, followed by stimulation with or without IGF1 (100 ng mL^−1) for 14 h. SRE luciferase activity was normalized to β‐galactosidase activity. Data represent the mean ± SD (n = 3). Statistical significance was determined by one‐way analysis of variance (ANOVA). g) Following pretreatment with Insig1/2 loop 1 peptide (15 µM) and IGF1 stimulation (100 ng mL^−1, 8 h), Huh7 cells were subjected to immunofluorescence analysis (scale bar: 10 µm). h) Quantitative PCR analysis of SREBP1 target gene GPAM in Huh7 cells pretreated with Insig1/2 loop 1 peptide (15 µM) and stimulated with IGF1 (100 ng mL^−1) for 10 h. Data represent the mean ± SD (n = 3). Statistical significance was determined by one‐way analysis of variance (ANOVA). i) Quantitative PCR analysis of SREBP1 target gene FASN in Huh7 cells pretreated with Insig1/2 loop 1 peptide (15 µM) and stimulated with IGF1 (100 ng mL^−1) for 10 h. Data represent the mean ± SD (n = 3). Statistical significance was determined by one‐way analysis of variance (ANOVA). j) Intracellular triglyceride (TG) content was quantified in Huh7 cells pretreated with Insig1/2 loop 1 peptide (25 µM) and stimulated with IGF1 (100 ng mL^−1) for 24 h. […] Statistical significance was determined by one‐way analysis of variance (ANOVA). k) Cell proliferation was assessed by automated cell counting after 72 h of IGF1 stimulation (100 ng mL^−1) in Huh7 cells pretreated with Insig1/2 loop 1 peptide (25 µM) for 1 h. […] Statistical significance was determined by one‐way analysis of variance (ANOVA). l) FLAG‐Insig1, Flag‐Insig1 S207A or FLAG‐ Insig1 S207D was expressed in Huh7 cells with depletion of Insig1 by expressing Insig1 shRNA. […]

Huh7 cells = assay: Triglyceride (TG) detection assay, Huh7; type: cell-based, human; conditions: peptide 25 µM, IGF1 100 ng/mL 24 h, n = 3
Method: Figure 1 The Insig1/2 loop 1 peptide binds to S90‐phosphorylated PCK1 and blocks PCK1‐mediated SREBP activation and tumor cell proliferation. Immunoblotting analyses were performed using the indicated antibodies; representative results from three independent experiments are shown (IP, immunoprecipitation; WB, western blot). a) Huh7 cells expressing various Insig1 (top) or Insig2 (bottom) truncation mutants were treated with or without IGF1 (100 ng mL^−1) for 1 h. b,c) Biolayer interferometry assays (Sartorius Octet) were employed to measure the binding affinity of Insig1/2 loop 1 peptide to GST‐PCK1 or GST‐PCK1 pS90 proteins. […] Statistical significance was determined by one‐way analysis of variance (ANOVA). g) Following pretreatment with Insig1/2 loop 1 peptide (15 µM) and IGF1 stimulation (100 ng mL^−1, 8 h), Huh7 cells were subjected to immunofluorescence analysis (scale bar: 10 µm). h) Quantitative PCR analysis of SREBP1 target gene GPAM in Huh7 cells pretreated with Insig1/2 loop 1 peptide (15 µM) and stimulated with IGF1 (100 ng mL^−1) for 10 h. […] Statistical significance was determined by one‐way analysis of variance (ANOVA). i) Quantitative PCR analysis of SREBP1 target gene FASN in Huh7 cells pretreated with Insig1/2 loop 1 peptide (15 µM) and stimulated with IGF1 (100 ng mL^−1) for 10 h. […]

Sequence: RKKRRQRRRLYPCIDSHLGEPHKFKRE [Insig1/2 loop 1 peptide]
- SREBP2-mediated expression of HMGCS1 [1]: suppressed
- SREBP2-mediated expression of LDLR [1]: suppressed
- expression of FASN [1]: markedly inhibited
- expression of GPAM [1]: markedly inhibited
- IGF1-induced increase in triglycerides (TGs) (Huh7 cells): reduced
